Format in all cases: in vivo
The subject of test [1] is growth hormone (GH). Description: Arginine-stimulated growth hormone secretion in Nembutal-anesthetized rats, radioimmunoassay of blood. The conditions noted are these: for GH: albino male rats; for dose effective for reducing secretion of growth hormone, glucagon, and insulin levels: rats, subcutaneous, summary statement covering GH. On the procedure: (§1) The biological activity of the products of the preceding preparatory examples were determined by the following procedure:
(§2) Albino male rats were administered Nembutal intraperitoneally at a dose of 50 milligrams per kilogram. Fifteen minutes later a subcutaneous injection of the test compound of physiological saline was administered. Ten minutes later 0.5 milliliters of arginine (300 milligrams per milliliter, pH 7.2) is injected into the heart. Five minutes after receipt of the arginine the rats are decapitated and blood is collected into trasylol-EDTA. An appropriate aliquot was assayed for growth hormone (GH), insulin and glucagon by radio immunoassay.

Test [2] deals with insulin. Description: Arginine-stimulated insulin secretion in Nembutal-anesthetized rats, radioimmunoassay of blood. The following applies: albino male rats. On the procedure: as §1, §2
Test [3] concerns glucagon. Kind of test: Arginine-stimulated glucagon secretion in Nembutal-anesthetized rats, radioimmunoassay of blood. The following applies: for GLUN: albino male rats; for dose with selectivity of action toward glucagon: rats, subcutaneous, summary statement. On the procedure:
as §1, §2

[4] abbreviates: 200 μg/kg subcutaneous, blood 15 min after compound (5 min after arginine), control 268 ± 46 (Example 2), 407 ± 62 (Example 3).
Where [5] appears, read: 200 μg/kg subcutaneous, blood 15 min after compound, control 323 ± 28 (Example 2), 271 ± 44 (Example 3).
The mark [6] stands for this setting: 200 μg/kg subcutaneous, blood 15 min after compound, control 379 ± 109 (Example 2), 46 ± 72 (Example 3).

Structures can show the parent of a compound that is named as a salt. Bridge positions count the residues as written; N and C are the ends. Square brackets hold non-standard residues; d marks the D form. Peptide text beside a SMILES is read from it.

Regarding `C[C@@H](O)[C@@H]1NC(=O)[C@H](Cc2ccccc2)NC(=O)[C@H]([C@@H](C)O)NC(=O)[C@H](CCCCN)NC(=O)[C@@H](Cc2c[nH]c3ccccc23)NC(=O)[C@H](Cc2ccccc2)NC(=O)[C@H](Cc2ccccc2)NC(=O)[C@H](Cc2ccc(O)cc2)NC(=O)[C@H](Cc2c[nH]cn2)NC(=O)[C@@H](N)CSSC[C@@H](C(=O)O)NC(=O)[C@H](CO)NC1=O` [Example 2, L-Cysteinyl-L-histidyl-L-tyrosyl-L-phenylalanyl-L-phenylalanyl-D-tryptophyl-L-lysyl-L-threonyl-L-phenylalanyl-L-threonyl-L-seryl-L-cysteine cyclic (1-12) disulfide diacetate salt] (H-CHYFF[dW]KTFTSC-OH; disulfide 1-12), the GH in test [1] (setting [4]) stood at 68 ± 14 ng/mL. In addition, the “dose effective for reducing secretion of growth hormone, glucagon, and insulin levels” value in test [1] is ≤ 50 micrograms per kilogram. In test [2] (setting [5]), this molecule had an INS of 254 ± 38 μU/ml. The molecule further showed a GLUN in test [3] (setting [6]) of 58 ± 24 pg/mL. In addition, the “dose with selectivity of action toward glucagon” value in test [3] was ≤ 10 micrograms per kilogram.
In the case of `C[C@@H](O)[C@@H]1NC(=O)[C@H](Cc2ccccc2)NC(=O)[C@H]([C@@H](C)O)NC(=O)[C@H](CCCCN)NC(=O)[C@@H](Cc2c[nH]c3ccccc23)NC(=O)[C@H](Cc2ccccc2)NC(=O)[C@H](Cc2ccccc2)NC(=O)[C@H](Cc2ccc(O)cc2)NC(=O)[C@H](CCCNC(=N)N)NC(=O)[C@@H](N)CSSC[C@@H](C(=O)O)NC(=O)[C@H](CO)NC1=O` [Example 3, L-Cysteinyl-L-arginyl-L-tyrosyl-L-phenylalanyl-L-phenylalanyl-D-tryptophyl-L-lysyl-L-threonyl-L-phenylalanyl-L-threonyl-L-seryl-L-cysteine cyclic (1-12) disulfide triacetate salt] (H-CRYFF[dW]KTFTSC-OH; disulfide 1-12), the GH in test [1] (10 μg/kg subcutaneous, control 335 ± 33) amounted to 207 ± 29 ng/mL; in test [1] (50 μg/kg subcutaneous, control 202 ± 11), 80 ± 16 ng/mL; in test [1] (setting [4]), 101 ± 24 ng/mL. In addition, the “dose effective for reducing secretion of growth hormone, glucagon, and insulin levels” value in test [1] is ≤ 50 micrograms per kilogram. Further, the INS in test [2] (10 μg/kg subcutaneous, control 309 ± 31) was 278 ± 36 μU/ml; in test [2] (50 μg/kg subcutaneous, control 238 ± 23), 85 ±14 μU/ml; in test [2] (setting [5]) it was 59 ± 16 μU/ml. Also, the GLUN came out at 12 ± 4 pg/mL in test [3] (10 μg/kg subcutaneous, control 52 ± 10); 12 ± 4 pg/mL in test [3] (50 μg/kg subcutaneous, control 86 ± 6); 13 ± 3 pg/mL in test [3] (setting [6]). Moreover, the “dose with selectivity of action toward glucagon” value in test [3] is listed as ≤ 10 micrograms per kilogram.
